Assay results reported in patent US20260068882A1, “ARTHROPOD CONTROLLING COMPOSITION” (Firmenich SA, priority 2019, published 2026).
Read-outs that look alike come from different tables or passages of the source.

How the values were obtained:
Aedes aegypti = assay: In vitro Warm Body assay, mosquitoes landing on treated warm body; type: in vivo; details: for % of mosquitoes' repellency: normalised to landing with 100% ethanol
Summary of the method: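 Adapted Warm Body assay with host-seeking, non-blood-fed, sugar-fed A. aegypti Rockefeller females aged 5–10 days (10–12 days in one set); cages held 30 (or 25) females at 150 lux. Landings were counted automatically. Doses in ethanol were 0.0016%, 0.04% and 1% in triplicate, or a single replicate across 0.0016–1%.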

Ixodes ricinus = assay: In vitro Warm Plate Assay for ticks; type: in vivo; details: for concentration at which the level of 85% of ticks affected is reached: Tables 10 and 12; for pest or weed control at 0.0053 %: 0.0053% in ethanol (Table 12); for pest or weed control at 0.0119 %: 0.0119% in ethanol (Table 12); for pest or weed control at 0.0178 %: 0.0178% in ethanol (Table 12); for pest or weed control at 0.0267 %: 0.0267% in ethanol (Table 12); for pest or weed control at 0.0598 %: 0.0598% in ethanol (Table 12); for pest or weed control at 0.089 %: 0.089% in ethanol (Table 12); for pest or weed control at 0.447 %: 0.447% in ethanol (Table 12)
Method: Repellent efficacy of the different compounds was assessed against the sheep tick, Ixodes ricinus. I. ricinus is one of the recommended model organisms mentioned by the Guidance on the European Biological Products Regulation [Vol II, Efficacy-Assessment & Evaluation (Parts B+C), v. 3.0, April 2018]. Observations of repellent efficacy were made on last stage nymphs.
The repellent efficacy was assessed using the protocol of the in-vitro Warm Plate Assay as defined in Kröber T, Bourquin M, Guerin P M. A standardized in vivo and in vitro test method for evaluating tick repellents. Pesticide Biochemistry and Physiology. 2013; 107 (2): 160-168.].
The mean±SD number of ticks Ixodes ricinus walking down (affected), falling (affected) or walking-up (non affected) from the warm plate treated with ethanol, N,N-diethyl-3-methylbenzamide, (2,5-dimethyl-2,3-dihydro-1H-inden-2yl)methanol (Ingredient 2) or (2,4,6-trimethyl-2,3-dihydro-1H-inden-2-yl)methanol (Ingredient 1) diluted in ethanol at 0.4 mg/ml and 10 mg/mL was assessed on n groups of 12 ticks (n=2-5).
In this in-vitro assay, the percentage of ticks Ixodes ricinus affected by the stimulus loaded on the warm plate was measured in order to assess the repellency effect. Twelve ticks were assessed per concentrations that goes from 0.0016% up to 1% in ethanol.
Using the same in-vitro setup, the effect on ticks behavior (n≥12) of different stimuli diluted in ethanol at 20% (w/w) was assessed overtime.

[1] = Aedes aegypti, read-out: decrease of landings
[2] = Ixodes ricinus, 0.04% (Table 10), read-out: percentage of ticks affected on the Warm Plate
[3] = Ixodes ricinus, 0.2% (Table 10), read-out: percentage of ticks affected on the Warm Plate
[4] = Ixodes ricinus, 1% (Table 10), read-out: percentage of ticks affected on the Warm Plate
[5] = Ixodes ricinus, 0.0016% in ethanol (Table 12), read-out: percentage of ticks affected on the Warm Plate
[6] = Ixodes ricinus, read-out: percentage of ticks affected on the Warm Plate
[7] = Ixodes ricinus, 0.008% in ethanol (Table 12), read-out: percentage of ticks affected on the Warm Plate
[8] = Ixodes ricinus, 0.04% in ethanol (Table 12), read-out: percentage of ticks affected on the Warm Plate
[9] = Ixodes ricinus, 0.2% in ethanol (Table 12), read-out: percentage of ticks affected on the Warm Plate
[10] = Ixodes ricinus, 1% in ethanol (Table 12), read-out: percentage of ticks affected on the Warm Plate
[11] = Ixodes ricinus, 0.0016% (Table 11), read-out: percentage of ticks affected on the Warm Plate
[12] = Ixodes ricinus, 0.04% (Table 11), read-out: percentage of ticks affected on the Warm Plate
[13] = Ixodes ricinus, 1% (Table 11), read-out: percentage of ticks affected on the Warm Plate

CC(C)c1ccc2c(c1)CC(C)(CO)C2 (racemic) [5-isopropyl-2-methyl-2-indanmethanol]
pest or weed control at 0.0016 % (Aedes aegypti; [1]): 4 to 29%
pest or weed control at 0.00032 % (Ixodes ricinus; Ixodes ricinus, 0.00032% (Table 10), read-out: percentage of ticks affected on the Warm Plate): 0%
pest or weed control at 0.0016 % (Ixodes ricinus; Ixodes ricinus, 0.0016% (Table 10), read-out: percentage of ticks affected on the Warm Plate): 21%
pest or weed control at 0.008 % (Ixodes ricinus; Ixodes ricinus, 0.008% (Table 10), read-out: percentage of ticks affected on the Warm Plate): 0%
pest or weed control at 0.04 % (Ixodes ricinus; [2]): 71%
pest or weed control at 0.2 % (Ixodes ricinus; [3]): 87%
pest or weed control at 1 % (Ixodes ricinus; [4]): 92%
concentration at which the level of 85% of ticks affected is reached (Ixodes ricinus): 0.2%

OCC1Cc2ccccc2C1 [2,3-dihydro-1H-inden-2-ylmethanol]
number of mosquitoes landed on the Warm Body (Aedes aegypti; 0.0016% in ethanol (Table 6)): 32
number of mosquitoes landed on the Warm Body (Aedes aegypti; 0.04% in ethanol (Table 6)): 1
pest or weed control at 0.04 % (Ixodes ricinus; [2]): 29%
pest or weed control at 0.2 % (Ixodes ricinus; [3]): 100%
pest or weed control at 1 % (Ixodes ricinus; [4]): 92%
concentration at which the level of 85% of ticks affected is reached (Ixodes ricinus): 0.2%

CCN(CC)C(=O)c1cccc(C)c1 [DEET, N,N-diethyl-3-methylbenzamide, reference compound]
% of mosquitoes' repellency (Aedes aegypti; 0.00032% concentration): 17%
% of mosquitoes' repellency (Aedes aegypti; 0.00071% concentration): 10%
% of mosquitoes' repellency (Aedes aegypti; 0.0016% concentration): 5%
mean ± SD numbers of mosquitoes landed on the Warm Body (Aedes aegypti; 0.0016% dilution (Table 4)): 53.3 ± 12.5
% of mosquitoes' repellency (Aedes aegypti; 0.0036% concentration): 19%
% of mosquitoes' repellency (Aedes aegypti; 0.0053% concentration): 46%
% of mosquitoes' repellency (Aedes aegypti; 0.0080% concentration): 61%
% of mosquitoes' repellency (Aedes aegypti; 0.018% concentration): 79%
% of mosquitoes' repellency (Aedes aegypti; 0.040% concentration): 89%
mean ± SD numbers of mosquitoes landed on the Warm Body (Aedes aegypti; 0.04% dilution (Table 4)): 5.7 ± 1.0
% of mosquitoes' repellency (Aedes aegypti; 0.089% concentration): 97%
% of mosquitoes' repellency (Aedes aegypti; 0.20% concentration): 98%
% of mosquitoes' repellency (Aedes aegypti; 0.45% concentration): 95%
% of mosquitoes' repellency (Aedes aegypti; 1% concentration): 97%
mean ± SD numbers of mosquitoes landed on the Warm Body (Aedes aegypti; 1% dilution (Table 4)): 0.7 ± 0.3
pest or weed control at 0.04 % (Aedes aegypti; Aedes aegypti, 0.04% in ethanol (FIG. 8), read-out: decrease of landings): 92%
MEAN % affected (ticks) (Ixodes ricinus; 0.4 mg/mL in ethanol (Table 5)): 50%
MEAN % affected (ticks) (Ixodes ricinus; 10 mg/mL in ethanol (Table 5)): 96%

CC(=O)C1(C)Cc2ccc(C)cc2C1 (racemic) [(+−)-1-(2,5-dimethyl-2,3-dihydro-1H-inden-2-yl)ethanone]
number of mosquitoes landed on the Warm Body (Aedes aegypti; 0.0016% in ethanol (Table 6)): 119
number of mosquitoes landed on the Warm Body (Aedes aegypti; 0.04% in ethanol (Table 6)): 15
number of mosquitoes landed on the Warm Body (Aedes aegypti; 1% in ethanol (Table 6)): 6
pest or weed control at 0.04 % (Ixodes ricinus; [2]): 0%
pest or weed control at 0.2 % (Ixodes ricinus; [3]): 42%
pest or weed control at 1 % (Ixodes ricinus; [4]): 100%

CC1CCC(C(C)(C)O)C(O)C1 (stereo not drawn) [PMD, 2-(2-hydroxypropan-2-yl)-5-methylcyclohexan-1-ol, reference compound]
reduction of landing (Aedes aegypti; 0.0016% (Table 7)): 11%
number of mosquitoes landed on the Warm Body (Aedes aegypti; 0.0016% in ethanol (Table 7, one replicate)): 58
number of mosquitoes landed on the Warm Body (Aedes aegypti; 0.008% in ethanol (Table 7, one replicate)): 40
number of mosquitoes landed on the Warm Body (Aedes aegypti; 0.0119% in ethanol (Table 7, one replicate)): 36
number of mosquitoes landed on the Warm Body (Aedes aegypti; 0.04% in ethanol (Table 7, one replicate)): 8
number of mosquitoes landed on the Warm Body (Aedes aegypti; 0.0598% in ethanol (Table 7, one replicate)): 1
number of mosquitoes landed on the Warm Body (Aedes aegypti; 0.2% in ethanol (Table 7, one replicate)): 1
number of mosquitoes landed on the Warm Body (Aedes aegypti; 1% in ethanol (Table 7, one replicate)): 0
percentage of ticks affected overtime (Ixodes ricinus; 20% (w/w) in ethanol, 0.25 h post-application): 42%
percentage of ticks affected overtime (Ixodes ricinus; 20% (w/w) in ethanol, 0.5 h post-application): 42%
percentage of ticks affected overtime (Ixodes ricinus; 20% (w/w) in ethanol, 1 h post-application): 83%
percentage of ticks affected overtime (Ixodes ricinus; 20% (w/w) in ethanol, 2 h post-application): 50%
percentage of ticks affected overtime (Ixodes ricinus; 20% (w/w) in ethanol, 4 h post-application): 8%
percentage of ticks affected overtime (Ixodes ricinus; 20% (w/w) in ethanol, 6 h post-application): 17%
ticks' repellency overtime (in words) (Ixodes ricinus; 20% (w/w) in ethanol, Table 14): not efficient during these first time points
pest or weed control at 0.0016 % (Ixodes ricinus; [5]): 0%
pest or weed control at 0.0053 % (Ixodes ricinus; [6]): 12%
pest or weed control at 0.008 % (Ixodes ricinus; [7]): 4%
pest or weed control at 0.0119 % (Ixodes ricinus; [6]): 4%
pest or weed control at 0.0178 % (Ixodes ricinus; [6]): 4%
pest or weed control at 0.0267 % (Ixodes ricinus; [6]): 0%
pest or weed control at 0.04 % (Ixodes ricinus; [8]): 12%
pest or weed control at 0.0598 % (Ixodes ricinus; [6]): 19%
pest or weed control at 0.089 % (Ixodes ricinus; [6]): 42%
pest or weed control at 0.2 % (Ixodes ricinus; [9]): 84%
pest or weed control at 0.447 % (Ixodes ricinus; [6]): 96%
pest or weed control at 1 % (Ixodes ricinus; [10]): 96%
ticks affected (Ixodes ricinus; dose of 0.598%): 19%

CC1(CO)Cc2ccccc2C1 [(2-methyl-1,3-dihydroinden-2-yl)methanol]
number of mosquitoes landed on the Warm Body (Aedes aegypti; 0.0016% in ethanol (Table 6)): 65
number of mosquitoes landed on the Warm Body (Aedes aegypti; 0.04% in ethanol (Table 6)): 16
number of mosquitoes landed on the Warm Body (Aedes aegypti; 1% in ethanol (Table 6)): 1
pest or weed control at 0.0016 % (Ixodes ricinus; [11]): 0%
pest or weed control at 0.04 % (Ixodes ricinus; [12]): 14%
pest or weed control at 1 % (Ixodes ricinus; [13]): 92%

Cc1cc(C)c2c(c1)CC(C)(CO)C2 (racemic) [ingredient #1, (2,4,6-trimethyl-2,3-dihydro-1H-inden-2-yl)methanol]
mosquitoes landing on the warm body (Aedes aegypti; 1% in ethanol (FIG. 8)): no mosquito landed
pest or weed control at 0.04 % (Aedes aegypti; [1]): 88%
MEAN % affected (ticks) (Ixodes ricinus; 0.4 mg/mL in ethanol (Table 5)): 67%
MEAN % affected (ticks) (Ixodes ricinus; 10 mg/mL in ethanol (Table 5)): 100%
ticks non-affected over 12 (in words) (Ixodes ricinus; 0.04%): three and five ticks over 12 being non-affected
ticks affected / not affected over 12 (in words) (Ixodes ricinus; 1%): all the ticks being affected
pest or weed control at 0.0016 % (Ixodes ricinus; [11]): 20%
pest or weed control at 0.0016 % (Ixodes ricinus; [5]): 20%
pest or weed control at 0.0053 % (Ixodes ricinus; [6]): 7%
pest or weed control at 0.008 % (Ixodes ricinus; [7]): 8%
pest or weed control at 0.0119 % (Ixodes ricinus; [6]): 23%
pest or weed control at 0.0178 % (Ixodes ricinus; [6]): 0%
pest or weed control at 0.0267 % (Ixodes ricinus; [6]): 7%
pest or weed control at 0.04 % (Ixodes ricinus; [12]): 57%
pest or weed control at 0.04 % (Ixodes ricinus; [8]): 57%
pest or weed control at 0.0598 % (Ixodes ricinus; [6]): 13%
pest or weed control at 0.089 % (Ixodes ricinus; [6]): 41%
pest or weed control at 0.2 % (Ixodes ricinus; [9]): 85%
pest or weed control at 0.447 % (Ixodes ricinus; [6]): 92%
pest or weed control at 1 % (Ixodes ricinus; [13]): 96%
pest or weed control at 1 % (Ixodes ricinus; [10]): 96%
